In patent publication US10201547B2, “Method of treatment of aggression” (Supernus Pharmaceuticals, Inc., priority 2008, dated 2019):

Columns and labels:
D2S(h) [1] = molecular target: T1, D2S(h) (Homo sapiens, UniProt P14416); test: D2S(h) displacement (radioligand binding) assay, [3H]spiperone
D4.4 = molecular target: T2, D4.4 (Homo sapiens, UniProt P21917); test: D4.4 displacement assay; format: binding; details: concentration 1.0E−05M
T2 sequence (P21917 1-419): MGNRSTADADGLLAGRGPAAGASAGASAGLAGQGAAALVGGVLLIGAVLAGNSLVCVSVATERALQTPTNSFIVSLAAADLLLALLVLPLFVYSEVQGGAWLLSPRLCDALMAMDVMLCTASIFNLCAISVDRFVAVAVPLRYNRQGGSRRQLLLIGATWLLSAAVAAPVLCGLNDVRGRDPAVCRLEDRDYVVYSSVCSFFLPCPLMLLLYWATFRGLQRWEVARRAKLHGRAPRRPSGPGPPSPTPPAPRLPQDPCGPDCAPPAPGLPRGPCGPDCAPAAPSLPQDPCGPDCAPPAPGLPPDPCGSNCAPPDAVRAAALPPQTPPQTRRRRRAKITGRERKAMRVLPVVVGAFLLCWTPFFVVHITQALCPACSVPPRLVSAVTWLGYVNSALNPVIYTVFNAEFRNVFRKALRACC

human D5 receptor [2] = molecular target: T3, human D5 receptor (Homo sapiens, UniProt P21918); test: D5(h) displacement (radioligand binding) assay, [3H]SCH 23390, recombinant D5 receptors in GH4 cell line
T3 construct: expressed in transfected cells; host or cells: GH4 cell line
T3 sequence (P21918 whole entry): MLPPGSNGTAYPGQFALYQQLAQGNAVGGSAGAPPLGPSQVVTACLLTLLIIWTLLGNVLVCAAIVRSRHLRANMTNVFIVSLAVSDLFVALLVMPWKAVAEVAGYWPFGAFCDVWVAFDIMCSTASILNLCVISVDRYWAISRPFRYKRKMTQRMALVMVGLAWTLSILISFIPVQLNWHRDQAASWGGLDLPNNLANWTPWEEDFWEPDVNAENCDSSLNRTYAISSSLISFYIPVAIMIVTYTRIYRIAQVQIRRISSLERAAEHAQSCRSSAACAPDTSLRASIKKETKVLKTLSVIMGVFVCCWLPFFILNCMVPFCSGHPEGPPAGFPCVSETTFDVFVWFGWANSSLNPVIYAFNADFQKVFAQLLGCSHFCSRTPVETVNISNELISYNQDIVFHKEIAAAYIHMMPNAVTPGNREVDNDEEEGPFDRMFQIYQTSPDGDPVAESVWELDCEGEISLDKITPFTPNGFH
Method: A heterologous competition assay was designed for a receptor affinity screening of molindone. Recombinant D5 receptors were expressed in a GH4 cell line and specific binding was characterized by displacement of another molecule with affinity for the D5 receptor (the “ligand”). “Specific binding” refers here to the difference in the binding of the ligand to the receptors in the presence and absence of an excess of the active agent. An initial screen was performed with […] molindone.
The affinity of molindone for the D5 receptor was further characterized by determining the IC50, or concentration that inhibits 50% of control specific binding. For this experiment, a range of molindone concentrations was selected for the ligand blocking assay. The IC50 was determined using non-linear regression analysis of the competition curves using Hill equation curve fitting. The inhibition constants Ki, wherein Ki is defined as the concentration of the competing ligand (molindone) that will bind to half the binding sites at equilibrium in the absence of radioligand or other competitors, were calculated using Cheng Prusoff equation.

D2S(h) [3] = molecular target: T1, D2S(h); test: D2S(h) antagonist effect, cAMP HTRF; format: cell-based
human D5 receptor [4] = molecular target: T3, human D5 receptor; test: D5(h) antagonist effect, cAMP HTRF; format: cell-based; details: for Agonist Response % of Control, 1st / Agonist Response % of Control, 2nd / Agonist Response % of Control, Mean: antagonist effect
Source text: (§1) The final step of the assay was to characterize whether the binding is of an agonist or antagonist nature. For the D5 receptor, this was accomplished through an assay that examined the agonist effect on the D5 receptor, i.e., the generation of cAMP or the blockade of this effect when stimulated by a D5 agonist, dopamine. This was also done with a range of concentrations to determine the relative agonist vs antagonist binding Ki. The EC50 values (concentration producing a half-maximal specific response) and IC50 values (a concentration causing a half-maximal inhibition of the control-specific agonist response) were determined by non-linear regression analysis of the concentration-response curves generated with mean replicate values using Hill equation curve fitting. The apparent dissociation constants for antagonists Kb were calculated using the modified Cheng Prusoff equation.

human D5 receptor [5] = molecular target: T3, human D5 receptor; test: D5(h) agonist effect, cAMP HTRF; format: cell-based; details: control 10 μM dopamine
Source text: as §1

[6] = Randomized, multicenter, parallel group dose-ranging study in children with ADHD and persistent serious conduct problems; format: in vivo, human; parameters: NCBRF-TIQ Conduct Problem Subscale Score, Visit 12 Mean / Mean Reduction from Baseline in NCBRF-TIQ Conduct Problem Subscale Score: scale not given here; details: for NCBRF-TIQ Conduct Problem Subscale Score, Visit 12 Mean: 6 weeks at target dose
Method: Effectiveness, safety and tolerability of molindone was evaluated in a randomized, multicenter, parallel group dose-ranging study in children with ADHD and persistent serious conduct problems. Subjects were randomized based on weight at baseline to 1 of 4 treatment groups. The dosing for subjects with weight of less than 30 kg was initiated at 1.67 mg/day and 3.34 mg/day for subjects weighing 30 kg or more. A titration schedule was followed until the target dose (Treatment group 1, 2, 3 or 4) was reached. Subjects remained at target dose for 6 weeks (Table 9). [table]

[7] = D5(h), test concentration 1.0E−04 M, dopamine 100 nM
[8] = D5(h), test concentration 1.0E−05 M, dopamine 100 nM
[9] = D5(h), test concentration 1.0E−06 M, dopamine 100 nM
[10] = D5(h), test concentration 1.0E−07 M, dopamine 100 nM
[11] = D5(h), test concentration 2.0E−05 M, dopamine 100 nM
[12] = D5(h), test concentration 3.0E−06 M, dopamine 100 nM
[13] = D5(h), test concentration 3.0E−07 M, dopamine 100 nM
[14] = D5(h), test concentration 5.0E−05 M, dopamine 100 nM

T1 sequence (P14416 1-414 isoform P14416-2): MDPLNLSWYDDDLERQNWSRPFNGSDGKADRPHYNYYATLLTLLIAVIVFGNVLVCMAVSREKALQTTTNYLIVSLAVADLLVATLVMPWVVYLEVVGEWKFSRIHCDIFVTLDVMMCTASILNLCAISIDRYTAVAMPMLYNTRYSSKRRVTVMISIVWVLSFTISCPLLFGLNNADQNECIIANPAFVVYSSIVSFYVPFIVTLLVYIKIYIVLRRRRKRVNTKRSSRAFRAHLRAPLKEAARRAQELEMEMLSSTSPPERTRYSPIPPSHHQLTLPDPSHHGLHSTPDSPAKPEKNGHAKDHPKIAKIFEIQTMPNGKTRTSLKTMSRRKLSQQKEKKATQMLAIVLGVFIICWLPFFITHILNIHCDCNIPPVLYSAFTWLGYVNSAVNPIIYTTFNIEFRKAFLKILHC

Ki (D2S(h) [1]; D2s binding, Cheng Prusoff, read-out: K1): 17 nM
n(H) (D2S(h) [1]; D2s binding, Hill equation curve fitting): 1.7
% Inhibition of control specific binding (D2S(h) [1]; D2s, concentration 1.0E−05M): 98%
% Inhibition of control specific binding (D4.4): 38%
IC50 (human D5 receptor [2]; D5 binding): 5200 nM
n(H) (human D5 receptor [2]; D5 binding, Hill equation curve fitting): 1.2
Ki (human D5 receptor [2]; D5 receptor): 2400 nM
inhibition at 10 pM (human D5 receptor [2]; molindone 10^−5 μM, read-out: inhibition of the SCH23390 binding at the D5 receptor): 59%
IC50 (D2S(h) [3]; dopamine 30 nM): 68 nM
Kb (D2S(h) [3]; modified Cheng Prusoff): 4.7 nM
IC50 (human D5 receptor [4]; D5(h), dopamine 100 nM): 5300 nM
Kb (human D5 receptor [4]; D5(h), modified Cheng Prusoff): 920 nM
nature of the binding/activity at the D5 receptor (agonist or antagonist) (human D5 receptor [4]; D5 receptor, cAMP): specific antagonist activity
Agonist Response % of Control, 1st (human D5 receptor [4]; [7]): 7%
Agonist Response % of Control, 2nd (human D5 receptor [4]; [7]): 4%
Agonist Response % of Control, Mean (human D5 receptor [4]; [7]): 5.6%
Agonist Response % of Control, 1st (human D5 receptor [4]; [8]): 40%
Agonist Response % of Control, 2nd (human D5 receptor [4]; [8]): 36%
Agonist Response % of Control, Mean (human D5 receptor [4]; [8]): 38.4%
Agonist Response % of Control, 1st (human D5 receptor [4]; [9]): 98%
Agonist Response % of Control, 2nd (human D5 receptor [4]; [9]): 95%
Agonist Response % of Control, Mean (human D5 receptor [4]; [9]): 96.4%
Agonist Response % of Control, 1st (human D5 receptor [4]; [10]): 107%
Agonist Response % of Control, 2nd (human D5 receptor [4]; [10]): 115%
Agonist Response % of Control, Mean (human D5 receptor [4]; [10]): 111.0%
Agonist Response % of Control, 1st (human D5 receptor [4]; [11]): 19%
Agonist Response % of Control, 2nd (human D5 receptor [4]; [11]): 20%
Agonist Response % of Control, Mean (human D5 receptor [4]; [11]): 19.6%
Agonist Response % of Control, 1st (human D5 receptor [4]; [12]): 67%
Agonist Response % of Control, 2nd (human D5 receptor [4]; [12]): 66%
Agonist Response % of Control, Mean (human D5 receptor [4]; [12]): 66.7%
Agonist Response % of Control, 1st (human D5 receptor [4]; [13]): 90%
Agonist Response % of Control, 2nd (human D5 receptor [4]; [13]): 95%
Agonist Response % of Control, Mean (human D5 receptor [4]; [13]): 92.9%
Agonist Response % of Control, 1st (human D5 receptor [4]; [14]): 4%
Agonist Response % of Control, 2nd (human D5 receptor [4]; [14]): 11%
Agonist Response % of Control, Mean (human D5 receptor [4]; [14]): 7.3%
Agonist Response % of Control, 1st (human D5 receptor [5]; test concentration 1.0E−04 M): 1%
Agonist Response % of Control, 2nd (human D5 receptor [5]; test concentration 1.0E−04 M): 4%
Agonist Response % of Control, Mean (human D5 receptor [5]; test concentration 1.0E−04 M): 2.1%
Agonist Response % of Control, 1st (human D5 receptor [5]; test concentration 1.0E−05 M): −1%
Agonist Response % of Control, 2nd (human D5 receptor [5]; test concentration 1.0E−05 M): 2%
Agonist Response % of Control, Mean (human D5 receptor [5]; test concentration 1.0E−05 M): 0.6%
Agonist Response % of Control, 1st (human D5 receptor [5]; test concentration 1.0E−06 M): 0%
Agonist Response % of Control, 2nd (human D5 receptor [5]; test concentration 1.0E−06 M): 0%
Agonist Response % of Control, Mean (human D5 receptor [5]; test concentration 1.0E−06 M): 0.1%
Agonist Response % of Control, 1st (human D5 receptor [5]; test concentration 1.0E−07 M): 2%
Agonist Response % of Control, 2nd (human D5 receptor [5]; test concentration 1.0E−07 M): 2%
Agonist Response % of Control, Mean (human D5 receptor [5]; test concentration 1.0E−07 M): 2.1%
Agonist Response % of Control, 1st (human D5 receptor [5]; test concentration 2.0E−05 M): −2%
Agonist Response % of Control, 2nd (human D5 receptor [5]; test concentration 2.0E−05 M): 2%
Agonist Response % of Control, Mean (human D5 receptor [5]; test concentration 2.0E−05 M): 0.2%
Agonist Response % of Control, 1st (human D5 receptor [5]; test concentration 3.0E−06 M): 3%
Agonist Response % of Control, 2nd (human D5 receptor [5]; test concentration 3.0E−06 M): 4%
Agonist Response % of Control, Mean (human D5 receptor [5]; test concentration 3.0E−06 M): 3.3%
Agonist Response % of Control, 1st (human D5 receptor [5]; test concentration 3.0E−07 M): 4%
Agonist Response % of Control, 2nd (human D5 receptor [5]; test concentration 3.0E−07 M): −1%
Agonist Response % of Control, Mean (human D5 receptor [5]; test concentration 3.0E−07 M): 1.8%
Agonist Response % of Control, 1st (human D5 receptor [5]; test concentration 5.0E−05 M): 1%
Agonist Response % of Control, 2nd (human D5 receptor [5]; test concentration 5.0E−05 M): −2%
Agonist Response % of Control, Mean (human D5 receptor [5]; test concentration 5.0E−05 M): −0.7%
Compound: CCc1c(C)[nH]c2c1C(=O)C(CN1CCOCC1)CC2 (stereo not drawn) [molindone]
NCBRF-TIQ Conduct Problem Subscale Score, Visit 12 Mean ([6]; Treatment 1: 5 mg/day (<30 kg), 10 mg/day (≥30 kg)): 13.40
Mean Reduction from Baseline in NCBRF-TIQ Conduct Problem Subscale Score ([6]; Treatment 1: 5 mg/day (<30 kg), 10 mg/day (≥30 kg), baseline mean 20.35): 6.95
NCBRF-TIQ Conduct Problem Subscale Score, Visit 12 Mean ([6]; Treatment 2: 10 mg/day (<30 kg), 20 mg/day (≥30 kg)): 17.00
Mean Reduction from Baseline in NCBRF-TIQ Conduct Problem Subscale Score ([6]; Treatment 2: 10 mg/day (<30 kg), 20 mg/day (≥30 kg), baseline mean 25.74): 8.74
NCBRF-TIQ Conduct Problem Subscale Score, Visit 12 Mean ([6]; Treatment 3: 15 mg/day (<30 kg), 30 mg/day (≥30 kg)): 17.79
Mean Reduction from Baseline in NCBRF-TIQ Conduct Problem Subscale Score ([6]; Treatment 3: 15 mg/day (<30 kg), 30 mg/day (≥30 kg), baseline mean 26.00): 8.21
NCBRF-TIQ Conduct Problem Subscale Score, Visit 12 Mean ([6]; Treatment 4: 20 mg/day (<30 kg), 40 mg/day (≥30 kg)): 11.65
Mean Reduction from Baseline in NCBRF-TIQ Conduct Problem Subscale Score ([6]; Treatment 4: 20 mg/day (<30 kg), 40 mg/day (≥30 kg), baseline mean 25.95): 14.30
Side effects ([6]; all four treatment groups): mild, self-limiting and within the limits of tolerability
discontinuation because of side effects ([6]; all four treatment groups): no subjects discontinued the study because of the side effects
efficacy signal towards reducing Conduct Problem Subscale scores ([6]; children with ADHD and persistent serious conduct problems): statistically significant efficacy signal
